The values that follow come from patent US20240209001A1, “HETEROCYCLIC DERIVATIVES AS JANUS KINASE INHIBITORS” (CHIESI FARMACEUTICI S.P. A., priority 2021, published 2024).

Each structure is given as a SMILES string.

The target of one experiment is JAK 2 (Homo sapiens (Human), UniProt O60674). The experiment can be described thus: Biochemical potency on JAK2, TR-FRET LANCE Ultra kinase assay (compounds 1-92). The following applies: ATP at Km, read-out: JAK2 inhibitory activity (pIC50 class) (converted). An outline of the steps: (§1)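 TR-FRET (LANCE Ultra) phosphorylation of ULight-JAK-1 peptide, ATP at Km: JAK1/JAK2/JAK3/TYK2 peptide 30/50/20/10 nM, ATP 20/0.7/0.2/12 μM, enzyme 0.15/0.083/0.025/0.144 ng/μL. 11-point 5-fold series from 20 μM; 1.5 h RT, EDTA stop, Eu-anti-pTyr detection 1 h; IC50 by variable-slope fit.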
(In general: Time-resolved FRET reads energy transfer from a long-lived donor to a nearby acceptor.)

Another experiment addresses JAK 1 (Homo sapiens (Human), UniProt P23458). Briefly: Biochemical potency on JAK1, TR-FRET LANCE Ultra kinase assay (compounds 1-92). Particulars: ATP at Km, read-out: JAK1 inhibitory activity (pIC50 class) (converted). An outline of the steps:
as §1

A further experiment has as its target TYK2 (Homo sapiens (Human), UniProt P29597). Briefly: Biochemical potency on Tyk2, TR-FRET LANCE Ultra kinase assay (compounds 1-92). The following applies: ATP at Km, read-out: Tyk2 inhibitory activity (pIC50 class) (converted). An outline of the steps: as §1
For the next experiment, the target named is JAK 3 (Homo sapiens (Human), UniProt P52333). The experiment can be described thus: Biochemical potency on JAK3, TR-FRET LANCE Ultra kinase assay (compounds 1-92). The following applies: ATP at Km, read-out: JAK3 inhibitory activity (pIC50 class) (converted). The method, boiled down:
as §1

JAK 3, sequence (P52333 whole entry): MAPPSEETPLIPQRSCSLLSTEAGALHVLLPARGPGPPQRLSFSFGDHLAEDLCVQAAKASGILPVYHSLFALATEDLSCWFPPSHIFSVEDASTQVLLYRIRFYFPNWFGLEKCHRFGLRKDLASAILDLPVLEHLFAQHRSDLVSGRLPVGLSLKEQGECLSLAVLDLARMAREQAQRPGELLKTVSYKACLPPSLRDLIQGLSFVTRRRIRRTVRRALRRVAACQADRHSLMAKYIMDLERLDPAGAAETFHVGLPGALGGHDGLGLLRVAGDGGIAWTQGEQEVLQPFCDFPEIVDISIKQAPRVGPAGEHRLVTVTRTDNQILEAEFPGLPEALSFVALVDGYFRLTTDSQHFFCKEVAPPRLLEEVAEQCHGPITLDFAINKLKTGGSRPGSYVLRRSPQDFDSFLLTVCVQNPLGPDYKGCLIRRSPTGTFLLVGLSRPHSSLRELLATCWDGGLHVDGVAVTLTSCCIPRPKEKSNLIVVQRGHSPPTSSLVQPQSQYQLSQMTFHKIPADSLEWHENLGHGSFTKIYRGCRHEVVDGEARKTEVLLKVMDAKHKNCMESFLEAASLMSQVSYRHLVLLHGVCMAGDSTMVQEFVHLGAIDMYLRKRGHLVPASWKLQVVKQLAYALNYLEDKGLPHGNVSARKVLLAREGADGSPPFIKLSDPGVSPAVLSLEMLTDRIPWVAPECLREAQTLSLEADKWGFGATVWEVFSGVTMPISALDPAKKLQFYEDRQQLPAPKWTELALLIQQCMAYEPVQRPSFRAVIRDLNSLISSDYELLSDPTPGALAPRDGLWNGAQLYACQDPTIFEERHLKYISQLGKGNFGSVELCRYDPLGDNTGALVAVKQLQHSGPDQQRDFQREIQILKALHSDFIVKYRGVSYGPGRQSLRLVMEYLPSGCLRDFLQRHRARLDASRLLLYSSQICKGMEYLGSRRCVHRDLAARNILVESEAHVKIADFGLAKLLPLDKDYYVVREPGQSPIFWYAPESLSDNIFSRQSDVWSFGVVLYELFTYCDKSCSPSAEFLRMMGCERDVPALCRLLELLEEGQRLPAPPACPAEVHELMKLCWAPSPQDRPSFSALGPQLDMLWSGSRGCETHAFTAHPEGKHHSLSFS
JAK 1, sequence (P23458 whole entry): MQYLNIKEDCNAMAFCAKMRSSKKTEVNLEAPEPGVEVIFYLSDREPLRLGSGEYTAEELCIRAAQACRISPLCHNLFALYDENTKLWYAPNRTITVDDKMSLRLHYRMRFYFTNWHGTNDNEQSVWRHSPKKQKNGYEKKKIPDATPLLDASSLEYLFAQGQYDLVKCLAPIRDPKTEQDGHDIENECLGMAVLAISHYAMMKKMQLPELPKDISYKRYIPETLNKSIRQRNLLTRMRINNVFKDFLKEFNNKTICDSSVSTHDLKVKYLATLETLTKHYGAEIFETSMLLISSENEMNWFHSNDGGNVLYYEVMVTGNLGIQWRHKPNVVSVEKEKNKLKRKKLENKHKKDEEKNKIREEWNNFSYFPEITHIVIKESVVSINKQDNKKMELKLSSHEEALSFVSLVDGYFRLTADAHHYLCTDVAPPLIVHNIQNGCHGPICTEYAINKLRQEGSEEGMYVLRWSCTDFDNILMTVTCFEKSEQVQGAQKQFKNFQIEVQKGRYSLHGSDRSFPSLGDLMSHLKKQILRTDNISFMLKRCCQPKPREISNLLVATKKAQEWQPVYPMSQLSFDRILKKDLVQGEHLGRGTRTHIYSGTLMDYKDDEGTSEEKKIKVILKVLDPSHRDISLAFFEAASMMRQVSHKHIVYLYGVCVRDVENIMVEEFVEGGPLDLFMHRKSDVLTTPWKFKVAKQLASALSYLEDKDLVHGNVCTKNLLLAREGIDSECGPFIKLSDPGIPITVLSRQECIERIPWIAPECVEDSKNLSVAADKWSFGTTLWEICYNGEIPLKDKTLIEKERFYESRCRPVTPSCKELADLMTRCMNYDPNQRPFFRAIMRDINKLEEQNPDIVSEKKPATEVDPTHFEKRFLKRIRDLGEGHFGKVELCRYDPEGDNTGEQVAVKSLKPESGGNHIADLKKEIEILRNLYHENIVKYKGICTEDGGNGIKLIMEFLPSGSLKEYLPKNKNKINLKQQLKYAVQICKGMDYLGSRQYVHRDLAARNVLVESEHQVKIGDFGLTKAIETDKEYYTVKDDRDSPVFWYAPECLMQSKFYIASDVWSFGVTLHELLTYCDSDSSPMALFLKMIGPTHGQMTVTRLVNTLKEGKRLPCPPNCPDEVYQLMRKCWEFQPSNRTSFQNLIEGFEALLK
JAK 2, sequence (O60674 whole entry): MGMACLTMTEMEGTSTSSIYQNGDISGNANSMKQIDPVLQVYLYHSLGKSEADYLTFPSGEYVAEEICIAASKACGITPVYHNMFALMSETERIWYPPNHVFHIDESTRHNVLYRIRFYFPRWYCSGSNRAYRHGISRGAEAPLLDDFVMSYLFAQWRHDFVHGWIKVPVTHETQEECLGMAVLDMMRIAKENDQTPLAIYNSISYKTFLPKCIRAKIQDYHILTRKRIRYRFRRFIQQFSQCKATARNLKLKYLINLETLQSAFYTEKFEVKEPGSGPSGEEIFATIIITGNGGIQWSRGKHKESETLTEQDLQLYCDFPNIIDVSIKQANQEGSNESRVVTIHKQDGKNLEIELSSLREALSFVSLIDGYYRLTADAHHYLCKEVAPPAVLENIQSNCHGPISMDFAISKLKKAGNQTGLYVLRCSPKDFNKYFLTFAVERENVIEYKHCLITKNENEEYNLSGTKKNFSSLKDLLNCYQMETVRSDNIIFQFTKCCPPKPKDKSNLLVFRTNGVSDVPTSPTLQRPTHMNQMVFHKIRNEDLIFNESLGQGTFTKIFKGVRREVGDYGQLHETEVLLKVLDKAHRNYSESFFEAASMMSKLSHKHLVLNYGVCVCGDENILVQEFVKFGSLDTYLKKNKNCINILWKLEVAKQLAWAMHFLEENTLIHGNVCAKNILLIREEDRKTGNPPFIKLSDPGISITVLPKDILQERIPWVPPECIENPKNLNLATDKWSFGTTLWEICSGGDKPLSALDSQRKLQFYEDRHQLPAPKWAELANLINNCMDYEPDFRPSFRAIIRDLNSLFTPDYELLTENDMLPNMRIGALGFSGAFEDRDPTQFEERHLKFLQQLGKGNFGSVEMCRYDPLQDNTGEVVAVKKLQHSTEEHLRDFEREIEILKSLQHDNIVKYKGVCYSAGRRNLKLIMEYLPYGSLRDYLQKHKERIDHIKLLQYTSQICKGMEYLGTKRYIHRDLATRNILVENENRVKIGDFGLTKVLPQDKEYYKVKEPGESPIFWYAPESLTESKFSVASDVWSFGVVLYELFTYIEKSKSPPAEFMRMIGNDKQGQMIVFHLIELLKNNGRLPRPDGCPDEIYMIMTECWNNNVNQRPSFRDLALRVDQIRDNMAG
TYK2, sequence (P29597 whole entry): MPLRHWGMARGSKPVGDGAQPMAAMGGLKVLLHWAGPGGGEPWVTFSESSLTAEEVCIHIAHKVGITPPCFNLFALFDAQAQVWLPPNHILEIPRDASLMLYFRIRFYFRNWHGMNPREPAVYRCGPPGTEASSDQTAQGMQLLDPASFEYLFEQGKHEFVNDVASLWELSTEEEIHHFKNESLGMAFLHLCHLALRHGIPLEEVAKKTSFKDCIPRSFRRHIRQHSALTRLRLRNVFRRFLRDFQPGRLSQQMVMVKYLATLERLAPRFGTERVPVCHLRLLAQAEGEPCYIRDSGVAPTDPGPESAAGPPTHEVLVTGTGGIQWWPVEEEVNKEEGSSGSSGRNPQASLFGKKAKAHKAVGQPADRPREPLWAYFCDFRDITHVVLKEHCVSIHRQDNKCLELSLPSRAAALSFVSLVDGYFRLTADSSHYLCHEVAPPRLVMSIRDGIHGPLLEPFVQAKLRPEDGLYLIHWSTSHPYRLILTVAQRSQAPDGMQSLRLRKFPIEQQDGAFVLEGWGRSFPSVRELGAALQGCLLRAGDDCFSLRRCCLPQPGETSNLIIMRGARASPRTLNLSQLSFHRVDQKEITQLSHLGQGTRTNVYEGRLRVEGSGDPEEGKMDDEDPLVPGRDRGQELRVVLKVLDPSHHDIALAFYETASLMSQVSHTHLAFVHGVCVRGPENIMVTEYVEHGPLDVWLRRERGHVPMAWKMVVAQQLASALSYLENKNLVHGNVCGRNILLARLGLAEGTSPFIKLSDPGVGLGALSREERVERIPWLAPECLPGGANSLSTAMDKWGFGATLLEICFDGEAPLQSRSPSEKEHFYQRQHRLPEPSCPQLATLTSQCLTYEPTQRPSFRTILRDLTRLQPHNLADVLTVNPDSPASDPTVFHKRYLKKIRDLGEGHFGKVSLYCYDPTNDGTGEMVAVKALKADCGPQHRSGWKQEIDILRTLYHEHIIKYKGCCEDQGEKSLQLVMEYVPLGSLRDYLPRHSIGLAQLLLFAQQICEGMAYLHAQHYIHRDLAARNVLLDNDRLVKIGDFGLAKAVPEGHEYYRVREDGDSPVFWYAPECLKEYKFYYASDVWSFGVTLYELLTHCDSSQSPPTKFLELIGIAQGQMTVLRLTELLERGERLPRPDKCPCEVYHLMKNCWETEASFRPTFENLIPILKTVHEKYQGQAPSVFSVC

In the case of `CCCS(=O)(=O)Nc1ccc(-n2nc(CNC)c3cnc(-c4cnn5cccnc45)cc32)c(OC)c1` [Example 83, N-(3-methoxy-4-(3-((methylamino)methyl)-6-(pyrazolo[1,5-a]pyrimidin-3-yl)-1H-pyrazolo[4,3-c]pyridin-1-yl)phenyl)propane-1-sulfonamide], the IC50 is not above 5.01 nM at JAK 2, not above 5.01 nM on JAK 1, 5.01 to 50.1 nM at TYK2 and not above 5.01 nM at JAK 3.
Consider `COc1cc(CNS(C)(=O)=O)ccc1-n1nc(CC#N)c2cnc(-c3cnn4cccnc34)cc21` [Example 60, N-(4-(3-(cyanomethyl)-6-(pyrazolo[1,5-a]pyrimidin-3-yl)-1H-pyrazolo[4,3-c]pyridin-1-yl)-3-methoxybenzyl)methanesulfonamide], for which the IC50 on JAK 2 was not above 5.01 nM; on JAK 1, not above 5.01 nM; at TYK2 it was 5.01 to 50.1 nM; at JAK 3, not above 5.01 nM.
As to `O=S(=O)(Nc1ccc(-n2nc(NCCN3CCOCC3)c3cnc(-c4cnn5cccnc45)cc32)c(OC(F)F)c1)C1CC1` [Example 25, N-(3-(difluoromethoxy)-4-(3-((2-morpholinoethyl)amino)-6-(pyrazolo[1,5-a]pyrimidin-3-yl)-1H-pyrazolo[4,3-c]pyridin-1-yl)phenyl)cyclopropanesulfonamide], the IC50 at JAK 2 is 5.01 to 50.1 nM; at JAK 1, 5.01 to 50.1 nM; at TYK2 it was more than 50.1 nM; on JAK 3 it was not above 5.01 nM.
For `COc1cc(NS(C)(=O)=O)ccc1-n1nc(NCCN2CCN(C)CC2)c2cnc(-c3cnn4cccnc34)cc21` [Example 38, N-(3-methoxy-4-(3-((2-(4-methylpiperazin-1-yl)ethyl)amino)-6-(pyrazolo[1,5-a]pyrimidin-3-yl)-1H-pyrazolo[4,3-c]pyridin-1-yl)phenyl)methanesulfonamide], the IC50 on JAK 2 was not above 5.01 nM; on JAK 1, not above 5.01 nM; at TYK2, 5.01 to 50.1 nM; on JAK 3, not above 5.01 nM.
In the case of `COc1cc(NC(=O)c2ccccc2)ccc1-n1nc(C)c2cnc(-c3cnn4cccnc34)cc21` [Example 74, N-(3-methoxy-4-(3-methyl-6-(pyrazolo[1,5-a]pyrimidin-3-yl)-1H-pyrazolo[4,3-c]pyridin-1-yl)phenyl)benzamide], the IC50 at JAK 2 is 5.01 to 50.1 nM; on JAK 1, 5.01 to 50.1 nM; at TYK2, more than 50.1 nM; on JAK 3, 5.01 to 50.1 nM.
Regarding `COc1cc(CNS(C)(=O)=O)ccc1-n1nc(NCCN2CCCCC2)c2cnc(-c3cnn4cccnc34)cc21` [Example 54, N-(3-methoxy-4-(3-((2-(piperidin-1-yl)ethyl)amino)-6-(pyrazolo[1,5-a]pyrimidin-3-yl)-1H-pyrazolo[4,3-c]pyridin-1-yl)benzyl)methanesulfonamide], the IC50 on JAK 2 is not above 5.01 nM; at JAK 1, 5.01 to 50.1 nM; on TYK2 it was 5.01 to 50.1 nM; at JAK 3 it was 5.01 to 50.1 nM.
Regarding `CNc1nn(-c2cc(Cl)c(CNS(C)(=O)=O)cc2OC)c2cc(-c3cnn4cccnc34)ncc12` [Example 57, N-(2-chloro-5-methoxy-4-(3-(methylamino)-6-(pyrazolo[1,5-a]pyrimidin-3-yl)-1H-pyrazolo[4,3-c]pyridin-1-yl)benzyl)methanesulfonamide], the IC50 at JAK 2 is not above 5.01 nM; on JAK 1, not above 5.01 nM; on TYK2, 5.01 to 50.1 nM; on JAK 3 it was not above 5.01 nM.
Take `COc1cc(NS(=O)(=O)c2cnn(C)c2)ccc1-n1nc(C)c2cnc(-c3cnn4cccnc34)cc21` [Example 10, N-(3-methoxy-4-(3-methyl-6-(pyrazolo[1,5-a]pyrimidin-3-yl)-1H-pyrazolo[4,3-c]pyridin-1-yl)phenyl)-1-methyl-1H-pyrazole-4-sulfonamide]: the IC50 on JAK 2 is not above 5.01 nM; on JAK 1, not above 5.01 nM; at TYK2, 5.01 to 50.1 nM; at JAK 3, 5.01 to 50.1 nM.
With `COc1cc(NS(=O)(=O)C2CCOC2)ccc1-n1nc(C)c2cnc(-c3cnn4cccnc34)cc21` (centres unmarked) [Example 9, N-(3-methoxy-4-(3-methyl-6-(pyrazolo[1,5-a]pyrimidin-3-yl)-1H-pyrazolo[4,3-c]pyridin-1-yl)phenyl)tetrahydrofuran-3-sulfonamide], the IC50 at JAK 2 was not above 5.01 nM; at JAK 1, 5.01 to 50.1 nM; on TYK2, 5.01 to 50.1 nM; on JAK 3 it was 5.01 to 50.1 nM.
As to `COc1cc(NS(C)(=O)=O)ccc1-n1nc(NCCN(C)CCF)c2cnc(-c3cnn4cccnc34)cc21` [Example 39, N-(4-(3-((2-((2-fluoroethyl)(methyl)amino)ethyl)amino)-6-(pyrazolo[1,5-a]pyrimidin-3-yl)-1H-pyrazolo[4,3-c]pyridin-1-yl)-3-methoxyphenyl)methanesulfonamide], the IC50 at JAK 2 is not above 5.01 nM; at JAK 1 it was not above 5.01 nM; on TYK2, 5.01 to 50.1 nM; at JAK 3, not above 5.01 nM.
As for `COc1cc(C(C)NS(C)(=O)=O)ccc1-n1nc(C)c2cnc(-c3cnn4cccnc34)cc21` (centres unmarked) [Example 62, N-(1-(3-methoxy-4-(3-methyl-6-(pyrazolo[1,5-a]pyrimidin-3-yl)-1H-pyrazolo[4,3-c]pyridin-1-yl)phenyl)ethyl)methanesulfonamide], the IC50 at JAK 2 is not above 5.01 nM; on JAK 1, not above 5.01 nM; at TYK2 it was more than 50.1 nM; on JAK 3 it was not above 5.01 nM.
For the compound `COc1cc(NS(C)(=O)=O)ccc1-n1nc(NC(=O)C2CCN(C)CC2)c2cnc(-c3cnn4cccnc34)cc21` [Example 41, N-(1-(2-methoxy-4-(methylsulfonamido)phenyl)-6-(pyrazolo[1,5-a]pyrimidin-3-yl)-1H-pyrazolo[4,3-c]pyridin-3-yl)-1-methylpiperidine-4-carboxamide], the IC50 was not above 5.01 nM on JAK 2, not above 5.01 nM on JAK 1, 5.01 to 50.1 nM on TYK2 and not above 5.01 nM at JAK 3.
For the compound `COc1cc(NS(=O)(=O)C2CC2)ccc1-n1nc(NCCN2CCOCC2)c2cnc(-c3cnn4cccnc34)cc21` [Example 34, N-(3-methoxy-4-(3-((2-morpholinoethyl)amino)-6-(pyrazolo[1,5-a]pyrimidin-3-yl)-1H-pyrazolo[4,3-c]pyridin-1-yl)phenyl)cyclopropanesulfonamide], the IC50 on JAK 2 is 5.01 to 50.1 nM; on JAK 1, not above 5.01 nM; at TYK2, 5.01 to 50.1 nM; on JAK 3, 5.01 to 50.1 nM.
As for `COc1cc(NS(C)(=O)=O)ccc1-n1nc(NCCN(C)C)c2cnc(-c3cnc4cccnn34)cc21` [Example 77, N-(4-(3-((2-(dimethylamino)ethyl)amino)-6-(imidazo[1,2-b]pyridazin-3-yl)-1H-pyrazolo[4,3-c]pyridin-1-yl)-3-methoxyphenyl)methanesulfonamide], the IC50 at JAK 2 is not above 5.01 nM; on JAK 1, not above 5.01 nM; on TYK2, 5.01 to 50.1 nM; at JAK 3, not above 5.01 nM.
Turning to `COc1cc(NS(C)(=O)=O)ccc1-n1nc(C(=O)NCCCN(C)C)c2cnc(-c3cnn4cccnc34)cc21` [Example 43, N-(3-(dimethylamino)propyl)-1-(2-methoxy-4-(methylsulfonamido)phenyl)-6-(pyrazolo[1,5-a]pyrimidin-3-yl)-1H-pyrazolo[4,3-c]pyridine-3-carboxamide], the IC50 at JAK 2 was not above 5.01 nM; on JAK 1, not above 5.01 nM; at TYK2 it was 5.01 to 50.1 nM; at JAK 3 it was 5.01 to 50.1 nM.
In the case of `CCCS(=O)(=O)Nc1ccc(-n2nc(C)c3cnc(-c4cnn5cccnc45)cc32)c(OC)c1` [Example 4, N-(3-methoxy-4-(3-methyl-6-(pyrazolo[1,5-a]pyrimidin-3-yl)-1H-pyrazolo[4,3-c]pyridin-1-yl)phenyl)propane-1-sulfonamide], the IC50 on JAK 2 was not above 5.01 nM; at JAK 1, not above 5.01 nM; at TYK2 it was 5.01 to 50.1 nM; on JAK 3, not above 5.01 nM.
For `COc1cc(NS(=O)(=O)c2cnn(C)c2)ccc1-n1nc(C)c2cnc(Nc3ncc[nH]c3=O)cc21` [Example 86, N-(3-methoxy-4-(3-methyl-6-((3-oxo-3,4-dihydropyrazin-2-yl)amino)-1H-pyrazolo[4,3-c]pyridin-1-yl)phenyl)-1-methyl-1H-pyrazole-4-sulfonamide], the IC50 on JAK 2 is not above 5.01 nM; on JAK 1 it was 5.01 to 50.1 nM; at TYK2 it was 5.01 to 50.1 nM; on JAK 3, not above 5.01 nM.
For `COc1cc(NS(C)(=O)=O)ccc1-n1nc(NC(=O)C2CCN(C)C2)c2cnc(-c3cnn4cccnc34)cc21` (racemic) [Example 42, N-(1-(2-methoxy-4-(methylsulfonamido)phenyl)-6-(pyrazolo[1,5-a]pyrimidin-3-yl)-1H-pyrazolo[4,3-c]pyridin-3-yl)-1-methylpyrrolidine-3-carboxamide], the IC50 at JAK 2, at JAK 1, at TYK2 and at JAK 3 was 5.01 to 50.1 nM each time.
Regarding `COc1cc(NS(C)(=O)=O)ccc1-n1nc(N)c2cnc(-c3cnn4cccnc34)cc21` [Example 79, N-(4-(3-amino-6-(pyrazolo[1,5-a]pyrimidin-3-yl)-1H-pyrazolo[4,3-c]pyridin-1-yl)-3-methoxyphenyl)methanesulfonamide], the IC50 is not above 5.01 nM at JAK 2, not above 5.01 nM on JAK 1, 5.01 to 50.1 nM on TYK2 and not above 5.01 nM at JAK 3.
For the compound `CNC(=O)Nc1ccc(-n2nc(C)c3cnc(-c4cnn5cccnc45)cc32)c(OC)c1` [Example 18, 1-(3-methoxy-4-(3-methyl-6-(pyrazolo[1,5-a]pyrimidin-3-yl)-1H-pyrazolo[4,3-c]pyridin-1-yl)phenyl)-3-methylurea], the IC50 on JAK 2 is 5.01 to 50.1 nM; at JAK 1 it was 5.01 to 50.1 nM; on TYK2, more than 50.1 nM; at JAK 3 it was 5.01 to 50.1 nM.
